Measured values from patent US4808605A, “Tetrahydronaphthalene derivatives as calcium antagonists” (Hoffmann-La Roche Inc., priority 1986, dated 1989).

Key:
[1] = target: T1, ^3 H-desmethoxyverapamil binding, partially-cleaned membranes of guinea pig heart (Cavia porcellus, UniProt O35505); experiment: ^3 H-Desmethoxyverapamil binding determinations (Test A); details: half-maximum inhibition of specific ^3 H-desmethoxyverapamil binding; 2.5 nM; 120 minutes at 37° C.
T1 construct: partially-cleaned membranes of guinea pig heart; from tissue; host or cells: guinea pig heart, partially-cleaned membranes
T1 sequence (O35505 whole entry): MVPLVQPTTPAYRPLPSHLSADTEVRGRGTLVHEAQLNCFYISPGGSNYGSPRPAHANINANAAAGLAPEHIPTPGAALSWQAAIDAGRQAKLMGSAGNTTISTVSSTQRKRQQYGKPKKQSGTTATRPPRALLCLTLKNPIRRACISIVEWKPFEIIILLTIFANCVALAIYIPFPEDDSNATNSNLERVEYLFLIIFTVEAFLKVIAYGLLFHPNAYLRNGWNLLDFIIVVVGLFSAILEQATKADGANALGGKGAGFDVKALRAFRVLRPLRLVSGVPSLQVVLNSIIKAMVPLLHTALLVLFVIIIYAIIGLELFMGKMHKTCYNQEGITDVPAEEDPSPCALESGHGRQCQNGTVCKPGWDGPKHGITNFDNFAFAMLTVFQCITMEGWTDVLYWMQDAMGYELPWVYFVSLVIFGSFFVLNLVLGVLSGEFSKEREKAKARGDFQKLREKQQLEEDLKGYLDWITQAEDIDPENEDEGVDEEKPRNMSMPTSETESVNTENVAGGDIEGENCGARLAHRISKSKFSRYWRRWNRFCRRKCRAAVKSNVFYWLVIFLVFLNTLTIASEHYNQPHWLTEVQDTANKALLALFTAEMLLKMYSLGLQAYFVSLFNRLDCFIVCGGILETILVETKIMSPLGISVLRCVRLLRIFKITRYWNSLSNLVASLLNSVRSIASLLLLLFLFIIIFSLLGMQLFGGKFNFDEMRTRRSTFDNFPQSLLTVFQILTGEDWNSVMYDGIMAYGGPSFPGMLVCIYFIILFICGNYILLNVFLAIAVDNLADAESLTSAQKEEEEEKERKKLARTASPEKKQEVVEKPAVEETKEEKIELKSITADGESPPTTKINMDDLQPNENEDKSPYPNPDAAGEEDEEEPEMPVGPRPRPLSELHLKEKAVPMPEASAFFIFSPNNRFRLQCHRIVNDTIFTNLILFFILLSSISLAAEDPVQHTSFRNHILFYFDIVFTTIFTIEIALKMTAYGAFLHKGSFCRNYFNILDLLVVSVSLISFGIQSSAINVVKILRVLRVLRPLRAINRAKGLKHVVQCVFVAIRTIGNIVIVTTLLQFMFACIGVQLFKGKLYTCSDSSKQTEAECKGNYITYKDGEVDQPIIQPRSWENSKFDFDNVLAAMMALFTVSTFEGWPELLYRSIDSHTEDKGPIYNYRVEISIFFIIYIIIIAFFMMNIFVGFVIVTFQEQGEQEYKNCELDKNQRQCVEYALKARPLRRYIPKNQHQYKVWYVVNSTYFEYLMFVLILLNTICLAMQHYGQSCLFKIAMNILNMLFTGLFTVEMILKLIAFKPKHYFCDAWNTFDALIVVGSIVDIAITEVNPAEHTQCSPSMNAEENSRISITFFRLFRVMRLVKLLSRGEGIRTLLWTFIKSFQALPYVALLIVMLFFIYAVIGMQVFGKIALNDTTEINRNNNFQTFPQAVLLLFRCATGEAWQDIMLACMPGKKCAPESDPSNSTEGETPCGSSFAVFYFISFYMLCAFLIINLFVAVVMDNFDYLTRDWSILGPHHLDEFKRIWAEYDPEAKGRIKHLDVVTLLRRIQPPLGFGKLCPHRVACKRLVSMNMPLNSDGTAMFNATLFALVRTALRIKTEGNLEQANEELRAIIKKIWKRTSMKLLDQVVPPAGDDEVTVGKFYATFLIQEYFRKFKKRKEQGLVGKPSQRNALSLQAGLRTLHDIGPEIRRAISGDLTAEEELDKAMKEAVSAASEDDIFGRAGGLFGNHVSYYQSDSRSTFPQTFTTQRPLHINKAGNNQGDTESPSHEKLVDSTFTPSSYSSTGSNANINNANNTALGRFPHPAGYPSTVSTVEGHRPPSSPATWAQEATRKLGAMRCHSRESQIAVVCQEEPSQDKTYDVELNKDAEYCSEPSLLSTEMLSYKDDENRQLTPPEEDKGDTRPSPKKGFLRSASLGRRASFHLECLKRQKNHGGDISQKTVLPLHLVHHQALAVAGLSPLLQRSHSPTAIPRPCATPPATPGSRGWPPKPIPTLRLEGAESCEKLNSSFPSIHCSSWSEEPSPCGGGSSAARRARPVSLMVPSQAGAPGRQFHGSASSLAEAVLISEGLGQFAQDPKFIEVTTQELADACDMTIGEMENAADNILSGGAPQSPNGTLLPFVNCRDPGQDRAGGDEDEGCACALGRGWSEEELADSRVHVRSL
Procedure: A. ^3 H-Desmethoxyverapamil binding determinations:
The determination is carried out on partially-cleaned membranes of guinea pig heart. […] The incubation lasts 120 minutes at 37° C. and is stopped by dilution with the incubation buffer; a filtration is subsequently carried out. The filter-bound radioactivity is measured with a scintillation counter. Specific binding (i.e. receptor-bound) is defined as the difference between total and unspecific-bound radioactivity. The unspecific binding is determined in the presence of an excess of non-radioactive verapamil (10 μM).
The activity (potency) of a compound in this test is defined by the IC50 value. The IC50 is the substance concentration (in mol/l) which produces a half-maximum inhibition of the specific ^3 H-desmethoxyverapamil binding. This value is extrapolated from a concentration-binding curve.

[2] = tested on: Isolated, perfused guinea pig heart; experiment: Isolated, perfused guinea pig heart according to Langendorff (Test B); details: Cavia porcellus, infusion, 10^-10 to 10^-6 M, pH 7.3, 37° C., read-out: CBF IC50
Procedure: B. Isolated, perfused guinea pig heart according to Langendorff: Guinea pigs weighing approximately 400 g are narcotized with Urethan (1 g/kg i.p.) and the heart is removed rapidly. […] A Miller microtip catheter pressure transducer (PC-350) is inserted in the left heart chamber in order to measure the left ventricular pressure. The total coronary artery flow is collected in a funnel and measured with an electro magnetic flow meter. All measurement parameters are recorded on a recording apparatus (Gould, Model 2800). The test begins after an adaptation of 45 minutes. Substances are infused with a velocity of 1% of the total coronary flow rate. A complete concentration-activity curve (10^-10 to 10^-6 M) is prepared for each substance.

narcotized dog = experiment: Haemodynamic parameters in the narcotized dog (Test C); assay type: in vivo; details: % maximum variation from initial value; for BP Δ %: blood pressure; for CBF Δ %: coronary blood flow; for HR Δ %: heart rate; for dp/dt Δ %: rate of increase in left ventricular pressure
Procedure: C. […] The values are given as the % maximum variation from the initial value (Δ %) and the duration of this variation (t) per dosage administered. There is thus obtained not only an overall picture of the activity of the substance, but also an estimation as to the potential selectivity for a specific part of the circulatory system in the entire organism. After the administration of an anaesthetic, the dog is intubated and respired artificially. Blood pH, pC2 O , pO2 and haemoglobin are measured hourly with a blood-gas analyser. The blood pressure (systolic and diastolic) is measured with a probe in the aorta abdominalis. The heart freguency is recorded by means of a tachometer, which is disengaged from the pressure pulse. For the other measurements the heart must be firstly be opened in order that a probe can be inserted in the left ventricle (heart chamber) for the pressure measurements (dp/dt). The coronary blood flow is measured with a flowing probe in the left coronary artery (descendens).

Structure (SMILES) | IC50 [1] | IC50 [2] | BP Δ % (narcotized dog; 0.3 mg/kg i.v.) | CBF Δ % (narcotized dog; 0.3 mg/kg i.v.) | HR Δ % (narcotized dog; 0.3 mg/kg i.v.) | dp/dt Δ % (narcotized dog; 0.3 mg/kg i.v.) | BP Δ % (narcotized dog; 0.03 mg/kg i.v.) | CBF Δ % (narcotized dog; 0.03 mg/kg i.v.) | HR Δ % (narcotized dog; 0.03 mg/kg i.v.) | dp/dt Δ % (narcotized dog; 0.03 mg/kg i.v.) | BP Δ % (narcotized dog; 1 mg/kg i.v.) | CBF Δ % (narcotized dog; 1 mg/kg i.v.) | HR Δ % (narcotized dog; 1 mg/kg i.v.) | dp/dt Δ % (narcotized dog; 1 mg/kg i.v.)
CCCCCCCCCCCCn1c(CCCCCCCN(C)CC[C@@]2(OC(=O)COC)CCc3cc(F)ccc3[C@@H]2C(C)C)nc2ccccc21 [F, [1S,2S]-2-[2-[[7-(1-dodecyl-2-benzimidazolyl)heptyl]methylamino]ethyl]-6-fluoro-1,2,3,4-tetrahydro-1-isopropyl-2-naphthyl methoxyacetate] | 34 nM | 28 nM | -3% | 46% | -2% | 4% | – | – | – | – | – | – | – | –
COCC(=O)O[C@]1(CCN(C)Cc2ccc(Cc3nc4ccccc4[nH]3)cc2)CCc2cc(F)ccc2[C@@H]1C(C)C [I, [1S,2S]-6-fluoro-1,2,3,4-tetrahydro-1-isopropyl-2-[2-[[4-[(2-benzimidazolyl)methyl]benzyl]methylamino]ethyl]-2-naphthyl methoxyacetate] | 100 nM | 22 nM | -14% | 82% | -9% | 18% | – | – | – | – | – | – | – | –
COCC(=O)O[C@]1(CCN(C)CCCc2nc(-c3ccccc3)c(-c3ccccc3)n2C)CCc2cc(F)ccc2[C@@H]1C(C)C [G, [1S,2S]-6-fluoro-1,2,3,4-tetrahydro-1-isopropyl-2-[2-[[3-(1-methyl-4,5-diphenylimidazol-2-yl)propyl]methylamino]ethyl]-2-naphthyl methoxyacetate] | 150 nM | 1.8 nM | -20% | 96% | -15% | 11% | – | – | – | – | – | – | – | –
CCCCNC(=O)O[C@]1(CCN(C)CCCCCc2nc3ccccc3n2C)CCc2cc(F)ccc2[C@@H]1C(C)C [C, [1S,2S]-6-fluoro-1,2,3,4-tetrahydro-1-isopropyl-2-[2-[methyl-[5-(1-methyl-2-benzimidazolyl)pentyl]amino]ethyl]-2-naphthyl butylcarbamate] | 210 nM | 17 nM | -16% | 62% | -9% | 15% | – | – | – | – | – | – | – | –
CC(C)[C@H]1c2ccc(F)cc2CC[C@]1(O)CCN(C)CCCCCCCc1nc2ccccc2[nH]1 [B, [1S,2S]-2-[2-[[7-(2-benzimidazolyl)heptyl]methylamino]ethyl]-6-fluoro-1,2,3,4-tetrahydro-1-isopropyl-2-naphthalenol] | 630 nM | 50 nM | -6% | 36% | 0% | 8% | – | – | – | – | – | – | – | –
COCC(=O)O[C@]1(CCN(C)CCCc2nc3ccccc3[nH]2)CCc2cc(F)ccc2[C@@H]1C(C)C [A, [1S,2S]-2-[2-[[3-(2-benzimidazolyl)propyl]methylamino]ethyl]-6-fluoro-1,2,3,4-tetrahydro-1-isopropyl-2-naphthyl methoxyacetate] | 130 nM | 47 nM | -22% | 86% | -7% | 25% | – | – | – | – | – | – | – | –
COCC(=O)O[C@]1(CCN(C)CCCCCCn2c(=O)[nH]c3ccccc32)CCc2cc(F)ccc2[C@@H]1C(C)C [D, [1S,2S]-6-fluoro-1,2,3,4-tetrahydro-1-isopropyl-2-[2-[methyl-[6-(2-oxo-1-benzimidazolinyl)hexyl]amino]ethyl]-2-naphthyl methoxyacetate] | 32 nM | 1.1 nM | – | – | – | – | -21% | 22% | -25% | 6% | – | – | – | –
COCC(=O)O[C@]1(CC[N+](C)([O-])CCCc2nc3ccccc3[nH]2)CCc2cc(F)ccc2[C@@H]1C(C)C (stereo partly drawn) [E, [1S,2S]-2-[2-[[3-(2-benzimidazolyl)propyl]methyl-N-oxidoamino]ethyl]-6-fluoro-1,2,3,4-tetrahydro-1-isopropyl-2-naphthyl methoxyacetate] | 1000 nM | 10000 nM | – | – | – | – | – | – | – | – | -8% | 57% | 0% | 10%
COCC(=O)O[C@]1(CCN(C)CCCCCc2nc3ccccc3s2)CCc2cc(F)ccc2[C@@H]1C(C)C [H, [1S,2S]-2-[2-[[5-(2-benzthiazolyl)pentyl]methylamino]ethyl]-6-fluoro-1,2,3,4-tetrahydro-1-isopropyl-2-naphthyl methoxyacetate] | 28 nM | 2.4 nM | -28% | 146% | -41% | 25% | – | – | – | – | – | – | – | –
